Values quoted from earlier work in patent US8968710B1, “Topical anesthetic” (priority 2005, dated 2015).

solubility in alcohol, ether, benzene and chloroform (alcohol, ether, benzene, chloroform): soluble | solubility in water (water): very slightly soluble
Compound: CCCCNc1ccc(C(=O)OCCN(C)C)cc1 [Tetracaine]
